Reference: patent publication US4956294A, “Culture of Streptoverticillium synroense for producing an antibacterial” (Merck & Co., Inc., priority 1989, dated 1990)
≈ marks a conversion by molar mass, not a printed value.

Columns and labels:
[1] = system: Staphylococcus aureus 108 (6538P); assay: Inhibition zone, agar plate; type: cell-based; conditions: 15λ, read-out: Inhibition Zone Diameter
[2] = system: Bacillus subtilis 964 (6633); assay: Inhibition zone, agar plate; type: cell-based; conditions: 15λ, read-out: Inhibition Zone Diameter
[3] = system: Vibrio percolans 1272 (8461); assay: Inhibition zone, agar plate; type: cell-based; conditions: Comamonas terrigena, 15λ, read-out: Inhibition Zone Diameter
[4] = system: Klebsiella pneumoniae 1264; assay: Inhibition zone, agar plate; type: cell-based; conditions: 15λ, read-out: Inhibition Zone Diameter
Aerobacter aerogenes 835 = assay: Inhibition zone, agar plate; type: cell-based; conditions: Klebsiella aerogenes, 15λ, read-out: Inhibition Zone Diameter
[5] = system: Erwinia atroseptica 1159 (4446); assay: Inhibition zone, agar plate; type: cell-based; conditions: Pectobacterium atrosepticum, 15λ, read-out: Inhibition Zone Diameter
[6] = system: Corynebacterium pseudodiph. 261 (9742); assay: Inhibition zone, agar plate; type: cell-based; conditions: read-out: Inhibition Zone Diameter
[7] = system: Escherichia coli 60 (9637); assay: Inhibition zone, agar plate; type: cell-based; conditions: 15λ, read-out: Inhibition Zone Diameter
[8] = system: Streptococcus faecium 2820; assay: Inhibition zone, agar plate; type: cell-based; conditions: Enterococcus faecium, 15λ, read-out: Inhibition Zone Diameter
[9] = system: Proteus vulgaris 2112 (episome); assay: Inhibition zone, agar plate; type: cell-based; conditions: read-out: Inhibition Zone Diameter
Aspergillus niger 442 = assay: Inhibition zone, agar plate; type: cell-based; conditions: 15λ, read-out: Inhibition Zone Diameter
[10] = system: Actinomyces naeslundii 4053; assay: Anaerobic agar dilution, Wilkens-Chalgren agar; type: cell-based; conditions: Actinomyces naeslundii, 4053, 48 h
Eubacterium limosum 3344 = assay: Anaerobic agar dilution, Wilkens-Chalgren agar; type: cell-based; conditions: inoculum 10^6 cfu/spot, 35° C., 48 hours
Procedure: (a) Wilkens-Chalgren agar was used instead of antagonist-free medium (Roche);
(b) The inoculum/spot was about 10^6 instead of about 10^4 ;
(c) The incubation period was for 48 hours, not 24 hours; and
(d) Incubations were performed under anaerobic conditions.

[11] = system: Peptostreptococcus anaerobius 3282; assay: Anaerobic agar dilution, Wilkens-Chalgren agar; type: cell-based; conditions: Peptostreptococcus anaerobius, 3282, 48 h
C. perfringens 3509 = assay: microbe, parasite or virus in culture; type: cell-based; conditions: Clostridium perfringens, 3509, 48 h
C. perfringens 3513 = assay: microbe, parasite or virus in culture; type: cell-based; conditions: Clostridium perfringens, 3513, 48 h
C. difficile Fox^r 4380 = assay: Anaerobic agar dilution, Wilkens-Chalgren agar; type: cell-based; conditions: Clostridioides difficile, 48 h
B. fragilis Pen^r 3214 = assay: Anaerobic agar dilution, Wilkens-Chalgren agar; type: cell-based; conditions: Bacteroides fragilis, 48 h
[12] = system: B. fragilis Clind^r, Fox^r, Tet^r 4360; assay: Anaerobic agar dilution, Wilkens-Chalgren agar; type: cell-based; conditions: Bacteroides fragilis, 48 h
[13] = system: B. fragilis NCCLS control strain 4419; assay: Anaerobic agar dilution, Wilkens-Chalgren agar; type: cell-based; conditions: Bacteroides fragilis, 48 h
[14] = system: B. distasonis Pen^r, Fox^r, Clind^r 4361; assay: Anaerobic agar dilution, Wilkens-Chalgren agar; type: cell-based; conditions: Parabacteroides distasonis, 48 h
[15] = system: B. thetalotamicron Clind^r 4362; assay: Anaerobic agar dilution, Wilkens-Chalgren agar; type: cell-based; conditions: 48 h
[16] = system: B. thetalotamicron Clind^r, NCCLS control strain 4420; assay: Anaerobic agar dilution, Wilkens-Chalgren agar; type: cell-based; conditions: 48 h
[17] = system: Fusobacterium mortiferum Fox^r 3345; assay: Anaerobic agar dilution, Wilkens-Chalgren agar; type: cell-based; conditions: 48 h
[18] = system: Veillonella alcalescens 1952; assay: Anaerobic agar dilution, Wilkens-Chalgren agar; type: cell-based; conditions: Veillonella parvula, 1952, 48 h
[19] = system: S. aureus Gm^r Meth^r 4310; assay: Agar dilution, trypticase soy agar; conditions: Staphylococcus aureus, 20 h
E. coli 2891 [20] = assay: Agar dilution, trypticase soy agar; conditions: Escherichia coli, 2891, 20 h
Sal. typhimurium 3860 = assay: Agar dilution, trypticase soy agar; conditions: Salmonella enterica, 20 h
[21] = system: Ps. aeruginosa RPL11+ 3350; assay: Agar dilution, trypticase soy agar; conditions: Pseudomonas aeruginosa, 20 h
Ser. marcescens 2840 = assay: Agar dilution, trypticase soy agar; conditions: Serratia marcescens, 2840, 20 h
Staph. aureus 2865 = assay: Agar dilution, antagonist-free medium
E. coli TEM 2+ 4351 = assay: Agar dilution, antagonist-free medium; conditions: Escherichia coli, 20 h
E. coli 2891 [22] = assay: Agar dilution, antagonist-free medium; conditions: Escherichia coli, 2891, 20 h
Ent. cloacae P99- 2647 = assay: Agar dilution, antagonist-free medium; conditions: Enterobacter cloacae, P992647, 20 h
Pasteurella = assay: Combined therapy with erythromycin in infected mice; conditions: L-654,040 combined with erythromycin, Pasteurella infection

SMILES: C[C@H](CNC(=O)[C@H]1N=C(c2cccc(O)c2O)O[C@@H]1C)C(=O)N[C@@H]1CCCN(O)C1=O [L-654,040, 2-(2,3-dihydroxyphenyl)-4,5-dihydro-N-[3-[(1-hydroxy-2-oxo-3(R)-piperidinyl)-amino]-2(R)-methyl-3-oxopropyl]-5R-methyl-4S-oxazolecarboxamide]
- zone of inhibition at 500 µg/mL ([1]; 0.5 mg/ml in distilled H2O): 0 mm
- zone of inhibition at 2000 µg/mL ([1]; 2 mg/ml in distilled H2O): 18 mm
- zone of inhibition at 500 µg/mL ([2]; 0.5 mg/ml in distilled H2O): 12 mm
- zone of inhibition at 2000 µg/mL ([2]; 2 mg/ml in distilled H2O): 14 mm
- zone of inhibition at 500 µg/mL ([3]; 0.5 mg/ml in distilled H2O): 18 mm
- zone of inhibition at 2000 µg/mL ([3]; 2 mg/ml in distilled H2O): 25 mm
- zone of inhibition at 500 µg/mL ([4]; 0.5 mg/ml in distilled H2O): 0 mm
- zone of inhibition at 2000 µg/mL ([4]; 2 mg/ml in distilled H2O): 0 mm
- zone of inhibition at 500 µg/mL (Aerobacter aerogenes 835; 0.5 mg/ml in distilled H2O): 0 mm
- zone of inhibition at 2000 µg/mL (Aerobacter aerogenes 835; 2 mg/ml in distilled H2O): 0 mm
- zone of inhibition at 500 µg/mL ([5]; 0.5 mg/ml in distilled H2O): 0 mm
- zone of inhibition at 2000 µg/mL ([5]; 2 mg/ml in distilled H2O): 0 mm
- zone of inhibition at 2000 µg/mL ([6]; 2 mg/ml in distilled H2O, 15λ): 33 mm
- zone of inhibition at 500 µg/mL [6]: 28 mm
- zone of inhibition at 500 µg/mL ([7]; 0.5 mg/ml in distilled H2O): 0 mm
- zone of inhibition at 2000 µg/mL ([7]; 2 mg/ml in distilled H2O): 0 mm
- zone of inhibition at 500 µg/mL ([8]; 0.5 mg/ml in distilled H2O): 0 mm
- zone of inhibition at 2000 µg/mL ([8]; 2 mg/ml in distilled H2O): 0 mm
- zone of inhibition at 500 µg/mL [9]: 16 mm
- zone of inhibition at 2000 µg/mL [9]: 28 mm
- zone of inhibition at 500 µg/mL (Aspergillus niger 442; 0.5 mg/ml in distilled H2O): 0 mm
- zone of inhibition at 2000 µg/mL (Aspergillus niger 442; 2 mg/ml in distilled H2O): 0 mm
- MIC [10]: 128 µg/mL (≈ 295 µM)
- MIC (Eubacterium limosum 3344): 128 µg/mL (≈ 295 µM)
- MIC [11]: > 128 µg/mL
- MIC (C. perfringens 3509): 64 µg/mL (≈ 147 µM)
- MIC (C. perfringens 3513): 128 µg/mL (≈ 295 µM)
- MIC (C. difficile Fox^r 4380): 128 µg/mL (≈ 295 µM)
- MIC (B. fragilis Pen^r 3214): > 128 µg/mL
- MIC [12]: > 128 µg/mL
- MIC [13]: > 128 µg/mL
- MIC [14]: > 128 µg/mL
- MIC [15]: > 128 µg/mL
- MIC [16]: > 128 µg/mL
- MIC [17]: > 128 µg/mL
- MIC [18]: > 128 µg/mL
- solubility (Solubility in water; boiling water): ~10000 µg/mL (≈ 23000 µM)
- solubility in water (Solubility in water; water, for dosing solutions): limited solubility
- MIC [19]: 128 µg/mL (≈ 295 µM)
- MIC (E. coli 2891 [20]): > 128 µg/mL
- MIC (Sal. typhimurium 3860): > 128 µg/mL
- MIC [21]: > 128 µg/mL
- MIC (Ser. marcescens 2840): > 128 µg/mL
- sensitivity of strain (Staph. aureus 2865; Staphylococcus aureus 2865): sensitive
- MIC (Staph. aureus 2865; Staphylococcus aureus, 2865, 20 h): 32 µg/mL (≈ 73.7 µM)
- MIC (E. coli TEM 2+ 4351): > 256 µg/mL
- MIC (E. coli 2891 [22]): > 256 µg/mL
- MIC (Ent. cloacae P99- 2647): > 256 µg/mL
- efficacy of combined therapy versus erythromycin alone (Pasteurella): slightly more effective than erythromycin alone but not to a degree considered to be synergistic
